Measured values published in ChEMBL document CHEMBL1133846, “The discovery of anthranilic acid-based MMP inhibitors. Part 3: incorporation of basic amines” (Bioorg Med Chem Lett, 2001).
Several values for one entry are separate records, joined by “and”; a condition that tells them apart may be missing. Identical values can stand only once.

Assays:
[1] = biological target: Matrix metalloproteinase-9 (Homo sapiens, UniProt P14780); experiment: In vitro inhibition of Matrix metalloprotease-9.
Interstitial collagenase [2] = biological target: T1, Interstitial collagenase (Homo sapiens, UniProt P03956); experiment: In vitro inhibition of Matrix metalloprotease-1.
T1 sequence (P03956 whole entry): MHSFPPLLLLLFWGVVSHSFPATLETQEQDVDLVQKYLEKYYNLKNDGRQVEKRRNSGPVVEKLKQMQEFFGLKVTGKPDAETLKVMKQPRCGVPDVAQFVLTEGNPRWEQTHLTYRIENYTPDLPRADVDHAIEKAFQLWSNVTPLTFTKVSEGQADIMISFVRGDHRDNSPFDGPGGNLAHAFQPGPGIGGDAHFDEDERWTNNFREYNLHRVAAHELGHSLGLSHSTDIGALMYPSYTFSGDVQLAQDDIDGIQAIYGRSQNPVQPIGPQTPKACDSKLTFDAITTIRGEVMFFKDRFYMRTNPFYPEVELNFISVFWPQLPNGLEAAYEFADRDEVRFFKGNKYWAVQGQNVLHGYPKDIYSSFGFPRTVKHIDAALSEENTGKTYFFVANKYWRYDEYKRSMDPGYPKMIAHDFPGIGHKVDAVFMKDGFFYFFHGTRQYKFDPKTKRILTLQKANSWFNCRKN

Collagenase 3 [3] = biological target: T2, Collagenase 3 (Homo sapiens, UniProt P45452); experiment: In vitro inhibition of Matrix metalloprotease-13.
[4] = biological target: T3, Disintegrin and metalloproteinase domain-containing protein 17 (Homo sapiens, UniProt P78536); experiment: In vitro inhibition of TNF-alpha converting enzyme.
T3 sequence (P78536 whole entry, the tested form may be a part): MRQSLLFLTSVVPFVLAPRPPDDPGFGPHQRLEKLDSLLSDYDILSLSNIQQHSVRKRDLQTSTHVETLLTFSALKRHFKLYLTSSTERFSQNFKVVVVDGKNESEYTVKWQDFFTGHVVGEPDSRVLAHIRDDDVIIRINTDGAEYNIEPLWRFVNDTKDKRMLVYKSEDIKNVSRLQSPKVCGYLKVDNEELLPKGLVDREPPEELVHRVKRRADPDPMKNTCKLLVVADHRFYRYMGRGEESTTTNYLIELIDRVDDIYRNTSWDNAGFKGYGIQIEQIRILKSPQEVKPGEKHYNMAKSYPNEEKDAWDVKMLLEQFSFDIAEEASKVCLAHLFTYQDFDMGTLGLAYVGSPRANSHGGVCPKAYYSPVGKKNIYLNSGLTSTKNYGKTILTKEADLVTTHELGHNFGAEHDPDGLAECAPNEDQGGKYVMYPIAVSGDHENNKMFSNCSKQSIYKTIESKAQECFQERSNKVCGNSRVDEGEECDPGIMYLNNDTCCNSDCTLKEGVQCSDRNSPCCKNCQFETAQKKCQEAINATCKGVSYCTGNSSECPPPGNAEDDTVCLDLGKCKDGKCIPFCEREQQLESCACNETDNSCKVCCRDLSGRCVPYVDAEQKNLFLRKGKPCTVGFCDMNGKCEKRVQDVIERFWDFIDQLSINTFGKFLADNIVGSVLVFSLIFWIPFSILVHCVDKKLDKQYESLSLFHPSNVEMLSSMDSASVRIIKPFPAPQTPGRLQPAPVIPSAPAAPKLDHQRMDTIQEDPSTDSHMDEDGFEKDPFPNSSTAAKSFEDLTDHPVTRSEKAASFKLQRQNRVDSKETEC

Interstitial collagenase [5] = biological target: T1, Interstitial collagenase; experiment: Inhibition of Matrix metalloprotease-1
[6] = biological target: T3, Disintegrin and metalloproteinase domain-containing protein 17; experiment: Inhibition of TNFalpha converting enzyme, TACE
Collagenase 3 [7] = biological target: T2, Collagenase 3
Description: Inhibition of Matrix metalloprotease-13

Chain of Matrix metalloproteinase-9 (P14780 whole entry): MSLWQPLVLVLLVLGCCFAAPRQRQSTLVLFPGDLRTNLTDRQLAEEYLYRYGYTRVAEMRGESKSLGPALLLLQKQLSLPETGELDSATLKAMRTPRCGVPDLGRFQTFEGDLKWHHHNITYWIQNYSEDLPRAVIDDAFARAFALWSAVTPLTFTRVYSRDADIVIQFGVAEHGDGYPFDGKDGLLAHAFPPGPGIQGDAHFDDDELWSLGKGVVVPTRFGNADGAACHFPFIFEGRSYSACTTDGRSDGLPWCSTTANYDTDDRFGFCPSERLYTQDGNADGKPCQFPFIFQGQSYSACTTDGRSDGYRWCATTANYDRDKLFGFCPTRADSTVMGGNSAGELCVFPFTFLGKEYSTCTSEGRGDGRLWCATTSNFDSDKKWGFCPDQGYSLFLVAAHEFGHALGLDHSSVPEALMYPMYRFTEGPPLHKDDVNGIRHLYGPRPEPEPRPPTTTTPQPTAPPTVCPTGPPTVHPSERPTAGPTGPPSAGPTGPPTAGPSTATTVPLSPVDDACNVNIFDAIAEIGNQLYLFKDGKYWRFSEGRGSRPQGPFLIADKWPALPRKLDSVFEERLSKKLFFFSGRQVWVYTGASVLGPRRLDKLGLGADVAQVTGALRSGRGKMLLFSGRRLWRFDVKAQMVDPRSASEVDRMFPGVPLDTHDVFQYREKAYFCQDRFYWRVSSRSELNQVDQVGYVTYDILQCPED

| Structure (SMILES) | IC50 [1] | IC50 (Interstitial collagenase [2]) | IC50 (Interstitial collagenase [5]) | IC50 [6] | IC50 (Collagenase 3 [7]) | IC50 (Collagenase 3 [3]) | IC50 [4] |
| --- | --- | --- | --- | --- | --- | --- | --- |
| COc1ccc(S(=O)(=O)N(Cc2ccc(OCCN3CCCCC3)cc2)c2c(C)cccc2C(=O)NO)cc1 | 7 nM |  |  |  |  |  |  |
| COc1ccc(S(=O)(=O)N(C)c2c(CN3CCN(C)CC3)cccc2C(=O)NO)cc1 | 1 nM |  |  |  |  |  |  |
| COC(=O)C1CCCN1Cc1cccc(C(=O)NO)c1N(C)S(=O)(=O)c1ccc(OC)cc1 (stereo not drawn) | 5 nM | 517 nM |  |  |  | 6 nM | 200 nM |
| COc1ccc(S(=O)(=O)N(C)c2c(CN3CCN(C)CC3)cc(-c3ccc4ccccc4c3)cc2C(=O)NO)cc1 | 2 nM | 343 nM |  |  |  | 3 nM | 49 nM |
| COc1ccc(S(=O)(=O)N(C)c2c(CN3CCN(C(=O)OC(C)(C)C)CC3)cc(Br)cc2C(=O)NO)cc1 | 7 nM | 674 nM |  |  |  | 6 nM | 63 nM |
| CN1CCN(Cc2cc(Br)cc(C(=O)NO)c2N(C)S(=O)(=O)c2ccc(Oc3ccc(Cl)cc3)cc2)CC1 | 0.5 nM |  | 82 nM | 80 nM | 0.7 nM |  |  |
| COc1ccc(S(=O)(=O)N(C)c2c(CN3CCN(C)CC3)cc(Br)cc2C(=O)NO)cc1 | 2 nM | 194 nM |  |  |  |  |  |
| COc1ccc(S(=O)(=O)N(C)c2c(CN3CCN(C)CC3)cc(-c3ccc(OC(F)(F)F)cc3)cc2C(=O)NO)cc1 | 2 nM | 745 nM |  |  |  | 4 nM | 210 nM |
| COc1ccc(S(=O)(=O)N(Cc2ccc(N3CCN(C)CC3)cc2)c2c(C)cccc2C(=O)NO)cc1 | 7 nM |  |  |  |  |  |  |
| CN1CCN(Cc2cccc(C(=O)NO)c2N(C)S(=O)(=O)c2ccc(Oc3ccc(Cl)cc3)cc2)CC1 | 1 nM | 155 nM |  |  |  | 0.8 nM | 122 nM |
| COc1ccc(S(=O)(=O)N(CC#CCN2CCN(C)CC2)c2c(C)cc(Br)cc2C(=O)NO)cc1 | 10 nM |  |  |  |  | 6 nM | 26 nM |
| COc1ccc(S(=O)(=O)N(C)c2c(CN3CCN(c4ccccc4)CC3)cc(Br)cc2C(=O)NO)cc1 | 3 nM | 444 nM |  |  |  | 3 nM | 87 nM |

Continued, in another order:

| IC50 [1] | IC50 (Interstitial collagenase [2]) | IC50 (Interstitial collagenase [5]) | IC50 [6] | IC50 (Collagenase 3 [7]) | Structure (SMILES) | IC50 (Collagenase 3 [3]) | IC50 [4] |
| --- | --- | --- | --- | --- | --- | --- | --- |
| 14 nM | 150 nM |  |  |  | CCN(CC)CC#CCN(c1c(C)cc(Br)cc1C(=O)NO)S(=O)(=O)c1ccc(OC)cc1 | 7 nM | 36 nM |
| 3 nM |  |  |  |  | COc1ccc(S(=O)(=O)N(Cc2ccc(CN(C)C)cc2)c2c(C)cccc2C(=O)NO)cc1 |  |  |
| 8 nM | 744 nM |  |  |  | CCN(CC)Cc1cccc(C(=O)NO)c1N(C)S(=O)(=O)c1ccc(OC)cc1 | 84 nM |  |
|  | 329 nM and 391 nM |  |  |  | COc1ccc(S(=O)(=O)N(Cc2cccnc2)c2c(C)cccc2C(=O)NO)cc1 |  | 356 nM and 645 nM |
| 2 nM |  |  |  |  | COc1ccc(S(=O)(=O)N(Cc2ccc(OCCN3CCCCC3)cc2)c2c(C)cc(Br)cc2C(=O)NO)cc1 | 3 nM |  |
